Laboratory results as given in US20110028554A1, “PHARMACEUTICAL COMPOSITIONS COMPRISING DIIODOTHYRONINE AND THEIR THERAPEUTIC USE” (UNIVERSITE JOSEPH FOURIER, priority 2007, published 2011).

Columns and labels:
[1] = Body composition (adipose tissues, skeletal muscles, brown adipose tissue) of Wistar rats; type: in vivo; details: high dosage 25 μg/100 g BW
Excerpt: (§1) At the end of the experimental period, animals were sacrificed by decapitation, in order to avoid the well-known effects of general anesthetics on mitochondrial metabolism. Blood, samples were immediately collected and plasma was frozen for subsequent determination of serum metabolites and hormones. Liver, muscles and fat depots were quickly excised and weighed. Liver median lobe was rapidly freeze-clamped. Muscles (plantaris, soleus and gastrocnemius) were frozen in isopentane precooled in liquid nitrogen. Mesenteric fat consisted, of adipose tissue surrounding the gastro-intestinal tract from the gastro-oesophageal sphincter to the end of the rectum with special care taken in distinguishing and removing the pancreas. Retroperitoneal fat pad was taken as the distinct depot behind each kidney along the lumbar muscles. Epididymal fat consisted, of adipose tissue on top of the epididymis. For subcutaneous depot measurement, a rectangular piece of skin was taken on the right side of each animal from the median line of the abdomen between the spine and the right hip to the first rib. Interscapular brown adipose tissue was removed and dissected free from adjacent muscles and white adipose tissue. The heart ventricles, the right kidney and the spleen were also excised, weighed and frozen.

[2] = Food intake of Wistar rats; type: in vivo; details: high dosage 25 μg/100 g BW
Experimental: (§2) Adult male rat bred in the animal room facilities of Laboratory of Fundamental and Applied. Bioenergetics (Wistar strain) or purchased from Charles-River Laboratories, Domaine des oncins, L'ARBRESLE France [(genetically obese normoglycemic (Zucker or Fa/Fa) or diabetic (ZDF)] were caged individually in stainless steel hanging cages and maintained in a 22° C., 50±10% relative humidity and 12 h:12 h light:dark environment. All animals were fed ad libitum with a standard rat chow (Safe A04, Villemoisson, France) and tap water. Body mass and food intake were recorded twice/thrice a week and fresh food was provided, at the same time to ensure minimal disturbance to the animals' food, behavior.
(§3) Eight-week old rats (300 g±10 g) were anesthetized by simultaneous intraperitoneal injection of diazepam 4 mg/kg and ketamine 100 mg/kg. In order to maintain body temperature during the surgery (10 min), animals were placed on a warm blanket. After interscapular shaving, a small incision of 0.5 cm of the skin allows the subcutaneous implantation of a small pellet (containing rT3 or 3′,3-T2) with a 10-gauge precision trochar. The pellets, manufactured by Innovative Research of America (Sarasota, Fla., USA) are constituted of a biodegradable matrix that effectively and continuously release the active product in the animal.
(§4) 3-5 diiodothyronine (3-5 T2) or 3-3′diiodothyronine (3-3′ T2) were used at different doses (5, 0.5, or 0.1 mg/pellet) were implanted in order to provide a continuous and constant drug delivery over 60 days (which represents 25 μg, 2.5 μg or 0.5 μg/day/100 g BW).

[3] = Growth rate (body weight) of Wistar rats with subcutaneous continuous-release pellet; type: in vivo; details: high dosage 25 μg/100 g BW
Experimental: as §2, §3, §4

muscle mitochondria = assay: Muscle mitochondrial oxygen consumption (JO2) of treated Wistar rats; type: in vivo; details: high dosage 25 μg/100 g BW
Experimental: (§5) All measurements were performed using mitochondria (0.2 mg mitochondrial protein/ml) incubated with various substrates: • GM: glutamate/malate (5 mM/2.5 mM) • SR: succinate/rotenone (5 mM/5 μM), • GMS: glutamate/malate/succinate (5 mM/2.5 mM/5 mM), • Palm: palmitoyl carnitine (55 μM), • Octa: octanoyl carnitine (100 μM), • TMPD/AsC: TMPD/ascorbate (0.5 mM/0.5 mM), and • TMPD/AsC/DNP: TMPD/ascorbate/DNP (0.5 mM/0.5 mM/75 μM).
JO2 was recorded in the presence of the substrate and following the addition of 1 mM ADP (state 3).
The oligomycin was added to the mitochondrial suspension to determine the non-phosphorylating respiratory rate (state 4).
(§6) The major part of the liver and the red part of each quadriceps were rinsed, and chopped into isolation medium (250 mM sucrose, 20 mM Tris-HCl and 1 mM EGTA-Tris, pH 7.4). Nuclei and cell debris were removed, by centrifugation at 800 g for 10 min. Mitochondria were then isolated from the supernatant by spinning twice at 8,000 g for 10 minutes. The mitochondrial pellet was resuspended in 0.5 ml of isolation buffer and kept on ice. Mitochondrial protein was measured by the bicinchoninic acid method (Pierce, Rockford, Ill.). The final mitochondrial suspensions were maintained on ice and were used for measurements of oxygen consumption rate and reactive oxygen species (ROS) production.
(§7) The rate of mitochondrial oxygen consumption (JO2) was measured at 30° C. in an incubation chamber with a Clark-type O2 electrode filled with 2 ml of incubation medium (125 mM KCl, 10 mM Pi-Tris, 20 mM Tris-HCl, 0.1 mM EGTA, pH 7.2). All measurements were performed using mitochondria (1.0 or 0.2 mg mitochondrial protein/ml for liver and skeletal muscle) incubated either with various substrates: glutamate/malate (5 mM/2.5 mM) and succinate (5 mM), alone or in combination, palmitoyl carnitine (55 μM) and octanoyl carnitine (100 μM). For each substrate, JO2 was recorded in the presence of the substrate alone (State 2) and following the addition of 1 mM ADP (state 3). Oligomycin (1.25 μg/mg protein) was added to the mitochondrial suspension to determine the non-phosphorylating respiratory rate (state 4). The incubation medium was constantly stirred with a built-in electromagnetic stirrer and bar flea. The efficiency of the mitochondrial oxidative phosphorylation was assessed by the state 3/state 4 ratio which measures the degree of control imposed on oxidation by phosphorylation (respiratory control ratio, RCR).

liver mitochondria = assay: Liver mitochondrial oxygen consumption (JO2) of treated Wistar rats; type: in vivo; details: high dosage 25 μg/100 g BW
Experimental: as §5, with “(1.0” for “(0.2”
JO2 was recorded in the presence of the substrate and following the addition of 1 mM ADP (adenosine diphosphate) (state 3).
The oligomycin was added to the mitochondrial suspension to determine the non-phosphorylating respiratory-rate (state 4).
as §6, §7

[4] = Plasmatic concentrations of glucose, triglycerides, cholesterol, FFA and HDL on the day of sacrifice; type: in vivo, Wistar, Zucker and ZDF rats; details: non-diabetic Wistar rats, 3,3′-T2 treatment (dose not printed in FIG. 15A legend)
Excerpt: These measurements were done on venous blood of the rats the day of the sacrifice.
as §1
Glucose and 3-hydroxybutyrate (3-HB) were measured, enzymatically and non esterified fatty acid (NEFA) by colorimetric assay (Wako Chemicals).
Triglycerides and cholesterol were measured by classical routine automate apparatus.

[5] = test system: nuclear receptors of the thyroid hormones, TRα-1 and TRβ-1; details: literature; cited from earlier work

| Compound | Brown adipose tissue weight vs placebo [1] | Fat masses, all localizations (retroperitoneal, epididymal, mesenteric, subcutaneous) vs placebo [1] | Muscle mass / lean body mass vs placebo [1] | Food intake vs placebo [2] | Growth rate (body weight gain) vs placebo [3] | Muscle mitochondrial respiration, non-phosphorylating (state 4), vs placebo (muscle mitochondria) | Muscle mitochondrial respiration, phosphorylating (state 3), vs placebo (muscle mitochondria) | Liver mitochondrial respiratory rate, non-phosphorylating (state 4, oligomycin), vs placebo (liver mitochondria) | Liver mitochondrial respiratory rate, phosphorylating condition (state 3), vs placebo (liver mitochondria; all substrates) | Plasmatic glucose at the end of the treatment [4] | Binding to the nuclear receptors [5] |
| --- | --- | --- | --- | --- | --- | --- | --- | --- | --- | --- | --- |
| N[C@@H](Cc1ccc(Oc2ccc(O)c(I)c2)c(I)c1)C(=O)O [3,3′-T2, 3′,3-diiodothyronine] | significantly increased | significantly decreased | not affected | a biphasic effect was observed | did not show similar weight gain | failed to substantially affect | failed to substantially affect | substantially higher in the low 3,5-T2 group only | very significant increased respiratory rate | minor changes |  |
| N[C@@H](Cc1cc(I)c(Oc2ccc(O)c(I)c2)c(I)c1)C(=O)O [T3] |  |  |  |  |  |  |  |  |  |  | binds very efficiently |
| N[C@@H](Cc1cc(I)c(Oc2cc(I)c(O)c(I)c2)c(I)c1)C(=O)O [T4, Thyroxine] |  |  |  |  |  |  |  |  |  |  | binds less efficiently |
